Test results from patent publication US12594276B2, “Inhibitors of human immunodeficiency virus replication” (ViiV Healthcare UK (No.5) Limited, priority 2024, dated 2026).

Columns and labels:
[1] = Compound cytotoxicity, XTT-based colorimetric assay; type: cell-based; conditions: human; uninfected MT2 cells, day 4, XTT; read-out: CC50
Summary of the method: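 Follows the antiviral assay procedure, but with uninfected MT2 cells. On day 4, cell viability is measured by XTT-based colorimetry, giving CC50 values.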

[2] = system: recombinant NL4-3 virus (nef section replaced with Renilla luciferase gene) in MT-2 cells; assay: HIV cell culture assay (antiviral activity, luciferase readout); type: cell-based; conditions: Renilla, NL43, MT-2 cells infected for 4-5 days with recombinant NL4-3 Renilla luciferase virus
Summary of the method: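 MT-2 cells were infected for 4-5 days with reporter virus made by transfecting the recombinant NL4-3 proviral clone into 293T cells, in the presence of serial compound dilutions. Luciferase activity was read with a live-cell substrate. EC50 came from the exponential median effect equation, (Fa)=1/[1+(ED50/drug conc.)m].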

Compound | CC50 at 4 days [1] | EC50 [2]
Cc1cc(C2(F)CCC(F)(F)CC2)nc2nc([C@H](Cc3cc(F)cc(F)c3)NC(=O)Cn3nc(C(F)F)c4c3C(F)(F)[C@@H]3C[C@H]43)n(-c3ccc(Cl)c4c(NS(C)(=O)=O)nn(CCN5C[C@@H](C)OC(C)(C)C5)c34)c(=O)c12 (atropisomer, axis not shown; (P)) [Example 577, N-[(1S)-1-[(3P)-3-(4-chloro-3-methanesulfonamido-1-{2-[(6R)-2,2,6-trimethylmorpholin-4-yl]ethyl}-1H-indazol-7-yl)-5-methyl-4-oxo-7-(1,4,4-trifluorocyclohexyl)-3H,4H-pyrido[2,3-d]pyrimidin-2-yl]-2-(3,5-difluorophenyl)ethyl]-2-[(2S,4R)-9-(difluoromethyl)-5,5-difluoro-7,8-diazatricyclo[4.3.0.0^2,^4]nona-1(6),8-dien-7-yl]acetamide] | > 20 nM | 0.014 nM
Cc1cc(C2(F)CCC(F)(F)CC2)nc2nc([C@H](Cc3cc(F)cc(F)c3)NC(=O)Cn3nc(C(F)F)c4c3C(F)(F)[C@@H]3C[C@H]43)n(-c3ccc(Cl)c4c(NS(C)(=O)=O)nn(CCN5CCOC(C)(C)C5)c34)c(=O)c12 (atropisomer, axis not shown; (P)) [Example 578, N-[(1S)-1-[(3P)-3-{4-chloro-1-[2-(2,2-dimethylmorpholin-4-yl)ethyl]-3-methanesulfonamido-1H-indazol-7-yl}-5-methyl-4-oxo-7-(1,4,4-trifluorocyclohexyl)-3H,4H-pyrido[2,3-d]pyrimidin-2-yl]-2-(3,5-difluorophenyl)ethyl]-2-[(2S,4R)-9-(difluoromethyl)-5,5-difluoro-7,8-diazatricyclo[4.3.0.0^2,^4]nona-1(6),8-dien-7-yl]acetamide] | > 20 nM | 0.008 nM
Cc1cc(C2(F)CCC(F)(F)CC2)nc2nc([C@H](Cc3cc(F)cc(F)c3)NC(=O)Cn3nc(C(F)F)c4c3C(F)(F)[C@@H]3C[C@H]43)n(-c3ccc(Cl)c4c(NS(C)(=O)=O)nn(CCN5CCOCC5(C)C)c34)c(=O)c12 (atropisomer, axis not shown; (P)) [Example 579, N-[(1S)-1-[(3P)-3-{4-chloro-1-[2-(3,3-dimethylmorpholin-4-yl)ethyl]-3-methanesulfonamido-1H-indazol-7-yl}-5-methyl-4-oxo-7-(1,4,4-trifluorocyclohexyl)-3H,4H-pyrido[2,3-d]pyrimidin-2-yl]-2-(3,5-difluorophenyl)ethyl]-2-[(2S,4R)-9-(difluoromethyl)-5,5-difluoro-7,8-diazatricyclo[4.3.0.0^2,^4]nona-1(6),8-dien-7-yl]acetamide] | > 20 nM | 0.011 nM
Cc1cc(C2(F)CCC(F)(F)CC2)nc2nc([C@H](Cc3cc(F)cc(F)c3)NC(=O)Cn3nc(C4CC4)c4c3C[C@@H]3C[C@H]43)n(-c3ccc(Cl)c4c(NS(C)(=O)=O)nn(CCN5CCO[C@@H](C(C)C)C5)c34)c(=O)c12 (atropisomer, axis not shown; (P)) [Example 581, N-[(1S)-1-[(3P)-3-(4-chloro-3-methanesulfonamido-1-{2-[(2S)-2-(propan-2-yl)morpholin-4-yl]ethyl}-1H-indazol-7-yl)-5-methyl-4-oxo-7-(1,4,4-trifluorocyclohexyl)-3H,4H-pyrido[2,3-d]pyrimidin-2-yl]-2-(3,5-difluorophenyl)ethyl]-2-[(2S,4S)-9-cyclopropyl-7,8-diazatricyclo[4.3.0.0^2,^4]nona-1(6),8-dien-7-yl]acetamide] | > 20 nM | 0.015 nM
Cc1cc(C2(F)CCC(F)(F)CC2)nc2nc([C@H](Cc3cc(F)cc(F)c3)NC(=O)Cn3nc(C4CC4)c4c3C[C@@H]3C[C@H]43)n(-c3ccc(Cl)c4c(NS(C)(=O)=O)nn(CCN5CCO[C@H](C(C)C)C5)c34)c(=O)c12 (atropisomer, axis not shown; (P)) [Example 582, N-[(1S)-1-[(3P)-3-(4-chloro-3-methanesulfonamido-1-{2-[(2R)-2-(propan-2-yl)morpholin-4-yl]ethyl}-1H-indazol-7-yl)-5-methyl-4-oxo-7-(1,4,4-trifluorocyclohexyl)-3H,4H-pyrido[2,3-d]pyrimidin-2-yl]-2-(3,5-difluorophenyl)ethyl]-2-[(2S,4S)-9-cyclopropyl-7,8-diazatricyclo[4.3.0.0^2,^4]nona-1(6),8-dien-7-yl]acetamide] | > 20 nM | 0.017 nM
Cc1cc(C2(F)CCC(F)(F)CC2)nc2nc([C@H](Cc3cc(F)cc(F)c3)NC(=O)Cn3nc(C4CC4)c4c3C[C@@H]3C[C@H]43)n(-c3ccc(Cl)c4c(NS(C)(=O)=O)nn(CCN5C[C@H](C)OC(C)(C)C5)c34)c(=O)c12 (atropisomer, axis not shown; (P)) [Example 583, N-[(1S)-1-[(3P)-3-(4-chloro-3-methanesulfonamido-1-{2-[(6S)-2,2,6-trimethylmorpholin-4-yl]ethyl}-1H-indazol-7-yl)-5-methyl-4-oxo-7-(1,4,4-trifluorocyclohexyl)-3H,4H-pyrido[2,3-d]pyrimidin-2-yl]-2-(3,5-difluorophenyl)ethyl]-2-[(2S,4S)-9-cyclopropyl-7,8-diazatricyclo[4.3.0.0^2,^4]nona-1(6),8-dien-7-yl]acetamide] | > 20 nM | 0.031 nM
Cc1cc(C2(F)CCC(F)(F)CC2)nc2nc([C@H](Cc3cc(F)cc(F)c3)NC(=O)Cn3nc(C4CC4)c4c3C[C@@H]3C[C@H]43)n(-c3ccc(Cl)c4c(NS(C)(=O)=O)nn(CCN5C[C@@H](C)OC(C)(C)C5)c34)c(=O)c12 (atropisomer, axis not shown; (P)) [Example 584, N-[(1S)-1-[(3P)-3-(4-chloro-3-methanesulfonamido-1-{2-[(6R)-2,2,6-trimethylmorpholin-4-yl]ethyl}-1H-indazol-7-yl)-5-methyl-4-oxo-7-(1,4,4-trifluorocyclohexyl)-3H,4H-pyrido[2,3-d]pyrimidin-2-yl]-2-(3,5-difluorophenyl)ethyl]-2-[(2S,4S)-9-cyclopropyl-7,8-diazatricyclo[4.3.0.0^2,^4]nona-1(6),8-dien-7-yl]acetamide] | > 20 nM | 0.015 nM
Cc1cc(C2(F)CCC(F)(F)CC2)nc2nc([C@H](Cc3cc(F)cc(F)c3)NC(=O)Cn3nc(C4CC4)c4c3C[C@@H]3C[C@H]43)n(-c3ccc(Cl)c4c(NS(C)(=O)=O)nn(CCN5CCOC(C)(C)C5)c34)c(=O)c12 (atropisomer, axis not shown; (P)) [Example 585, N-[(1S)-1-[(3P)-3-{4-chloro-1-[2-(2,2-dimethylmorpholin-4-yl)ethyl]-3-methanesulfonamido-1H-indazol-7-yl}-5-methyl-4-oxo-7-(1,4,4-trifluorocyclohexyl)-3H,4H-pyrido[2,3-d]pyrimidin-2-yl]-2-(3,5-difluorophenyl)ethyl]-2-[(2S,4S)-9-cyclopropyl-7,8-diazatricyclo[4.3.0.0^2,^4]nona-1(6),8-dien-7-yl]acetamide] | > 20 nM | 0.012 nM
